The text below walks through data of patent US9914910B2, “Methods of preserving and protecting pancreatic beta cells and treating or preventing diabetes by inhibiting NOX-1” (Eastern Virginia Medical School, priority 2013, dated 2018).

In series [1] the test system is beta cells. The series can be described thus: Static glucose-stimulated-insulin-secretion after PIC. It counts as cell-based. The following applies: 100 nM, 3 mM vs 16 mM glucose. The procedure:
Pyrazolopyridine dione compound class of dual selective NOX1/4 inhibitors were also evaluated on preservation of beta cell function and survival with concomitant exposure to inflammatory cytokines. Two NOX1/4 pyrazolopyridine dione compounds C1 and C2 (Methyl-2-phenyl-5-(2-pyridinylmethyl)-1H-pyrazolo[4,3-c]pyridine-3,6(2H,5H)-dione and 5-Benzyl-4-methyl-2-phenyl-1H-pyrazolo[4,3-c]pyridine-3,6(2H,5H)-dione, respectively) were assessed at 100 nM. […] Inflammatory cytokines (PIC; IFNγ, TNFα, IL-1β)) abolished this response. The glucose-stimulated-insulin-secretion response was preserved in the presence of inflammatory cytokines by pyrazolopyridine dione compounds C1 and C2. *p<0.05, **p<0.01.

Series [2] concerns NOX-1 gene expression in beta cells. Description: Inflammatory cytokine-induced gene expression in beta cells. The series is classed as cell-based. The source says:
Inflammatory cytokines (PIC; IFNγ, TNFα, IL-1β)) induce expression of NOX-1 and MCP-1 in beta cells. Elevated NOX-1 is associated with beta cell dysfunction and NOX-1 expression is associated with feed-forward generation of reactive oxygen species. […] Shown are fold increase, *p<0.05.
Feed-forward activation of NOX-1 can also be reduced with siRNA. Inflammatory cytokines (PIC; IFNγ, TNFα, IL-1β) induce the gene expression of NOX-1 that is further regulated in a feed-forward manner involving reactive oxygen species generated by NOX-1.
Compounds that inhibit interleukin-12, interleukin-23 and/or STAT4 signaling disrupt NOX-1 upregulation by inflammatory cytokines.

For series [3] the following is noted: mice, dosing 1000 mg/Kg per os; cited from earlier work.
Series [4] has as its system NOX-1 gene expression in primary mouse islets. The series can be described thus: PIC-induced NOX-1 gene expression (RT-PCR). The series is classed as cell-based. To be noted: NCTT-1 100 nM, ML171 1 μM. The source says:
Human donor islets were obtained from integrated islet distribution project (http://iidp.coh.org) and cultured in CMRL media (Mediatech, Manassas, Va.). Mouse islets were freshly isolated from 8-week old male C57BL/6J mice (Jackson Laboratory, Bar Harbor, Me.) by common bile duct cannulation and collagenase digestion. Islets were hand picked prior to use. […] Total RNA was isolated using the RNeasy Mini Kit (Qiagen, Valencia, Calif.) and cDNA prepared using MMLV reverse transcriptase (Life Technologies) and random hexamers (Life Technologies). Jump Start Taq polymerase (Life Technologies) was used in PCR reactions. Primers used with SYBR Green 1 (Molecular Probes, Carlsbad, Calif.) probes: […] GAPDH forward [NT] ID NO: 3); GAPDH reverse [NT] NO: 4). RT-PCR reactions were performed in triplicate (CFX96 Bio-Rad, Hercules, Calif.). Taqman primers (Life Technologies) were also used.

In series [5] the test system is MCP-1, IL-12p40, IL-12 p35, IFNγ gene expression in primary mouse islets. Description: Cytokine-induced target gene expression (real time PCR). The series is classed as cell-based. The following applies: NCTT-1 100 nM, ML171 1 μM. The method, then: (§1) Total RNA was isolated using the RNeasy Mini Kit (Qiagen, Valencia, Calif.) and cDNA prepared using MMLV reverse transcriptase (Life Technologies) and random hexamers (Life Technologies). Jump Start Taq polymerase (Life Technologies) was used in PCR reactions. […] RT-PCR reactions were performed in triplicate (CFX96 Bio-Rad, Hercules, Calif.). Taqman primers (Life Technologies) were also used. Data was normalized to the housekeeping gene GAPDH and analyzed using the 2-ΔΔCT method.
Data is quantitative real time PCR gene expression analysis from triplicate experiments performed in replicate. Fold induction in gene expression over control (non cytokine-treated) islets is graphed.
In general terms: Real-time PCR tracks product formation cycle by cycle.

In series [6] the test system is MCP-1 expression in INS-1. The series can be described thus: Cytokine-induced MCP-1 gene expression (real time PCR). To be noted: INS-1, 10 nM. The series is classed as cell-based, rat. The method, then: as §1
Data is quantitative real time PCR gene expression analysis from triplicate experiments performed in replicate.

The subject of series [7] is interleukin-12 and interleukin-23 production. To be noted: cited from earlier work.
The target of the next series is T1, NOX-1 (Homo sapiens, UniProt Q9Y5S8).
T1 sequence (Q9Y5S8 1-564): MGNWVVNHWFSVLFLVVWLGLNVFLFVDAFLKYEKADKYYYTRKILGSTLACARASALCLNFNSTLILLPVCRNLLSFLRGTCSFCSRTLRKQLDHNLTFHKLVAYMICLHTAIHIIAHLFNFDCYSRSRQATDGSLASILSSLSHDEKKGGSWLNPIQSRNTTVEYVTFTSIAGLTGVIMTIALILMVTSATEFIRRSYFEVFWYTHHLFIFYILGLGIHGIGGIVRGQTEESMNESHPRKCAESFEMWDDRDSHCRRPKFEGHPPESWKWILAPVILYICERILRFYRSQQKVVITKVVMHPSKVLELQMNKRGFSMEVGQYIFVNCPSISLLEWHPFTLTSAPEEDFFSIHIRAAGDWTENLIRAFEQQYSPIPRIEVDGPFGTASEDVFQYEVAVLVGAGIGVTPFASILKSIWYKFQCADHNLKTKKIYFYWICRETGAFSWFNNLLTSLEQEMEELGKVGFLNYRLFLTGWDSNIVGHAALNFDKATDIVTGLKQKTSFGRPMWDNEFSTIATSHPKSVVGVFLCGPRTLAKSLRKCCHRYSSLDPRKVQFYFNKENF
T1 sequence (P13498 1-195 partner): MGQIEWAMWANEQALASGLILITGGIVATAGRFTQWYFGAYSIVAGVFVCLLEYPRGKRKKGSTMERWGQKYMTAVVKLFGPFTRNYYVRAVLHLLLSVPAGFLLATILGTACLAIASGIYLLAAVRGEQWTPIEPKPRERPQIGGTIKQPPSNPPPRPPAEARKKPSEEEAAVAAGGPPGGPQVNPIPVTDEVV
The following applies: cited from earlier work.

Series [8] concerns beta cells. The series can be described thus: Pro-caspase 3 cleavage after PIC, beta cell survival. The series is classed as cell-based. The following applies: C1 100 nM, ML171 10 μM. The method, then:
(§2) Loss of beta cell viability in response to inflammatory cytokines was assessed by measurement of caspase 3 activation and quantified microscopy. […] Measured by pro-caspase 3 cleavage (A) or quantified microscopy of YO-PRO-1 stained cells (B). […] Shown are RFU from fluorescent capase3 substrate, ##p<0.01 relative to control; *p<0.05; **p<0.01 relative to PIC (A) and Microscopic apoptotic index ###p<0.001 relative to control; ***p<0.001; **p<0.01 relative to PIC (B).

In series [9] the test system is beta cells. The series can be described thus: Quantified microscopy of YO-PRO-1 stained cells after PIC. To be noted: C1 100 nM, ML171 10 μM. The series is classed as cell-based. The procedure:
as §2

As to `Cc1c2c(=O)n(-c3ccccc3)[nH]c2cc(=O)n1Cc1ccccc1` [C2, 5-Benzyl-4-methyl-2-phenyl-1H-pyrazolo[4,3-c]pyridine-3,6(2H,5H)-dione], the “glucose-stimulated-insulin-secretion response with PIC” value in the series with beta cells [1] is “preserved”. The “inflammatory cytokine-induced gene expression (NOX-1 and MCP-1)” value in series [2] is “dose-related inhibition”.

On to `Cc1c2c(=O)n(-c3ccccc3Cl)[nH]c2cc(=O)n1Cc1ccccn1` [GKT-136901], for which the tolerability result in [3] is on record as “well tolerated”.

Turning to `Cc1c2c(=O)n(-c3ccccc3)[nH]c2cc(=O)n1Cc1ccccn1` [NCTT-1], the “induction of gene NOX-1 by PIC” value in series [4] was “attenuated”. In series [5], the “induction of gene IFNγ by PIC” value is given as “attenuated”, the “induction of gene IL-12 p35 by PIC” value is “attenuated”, the “induction of gene IL-12p40 by PIC” value is “attenuated” and the “induction of gene MCP-1 by PIC” value was “attenuated”. Further, in series [6], the “cytokine-induced MCP-1 expression” value is given as “attenuated cytokine-induced MCP-1 expression”.

Turning to `Cc1cccc(/C=N/Nc2cc(N3CCOCC3)nc(OCCc3ccccn3)n2)c1` [STA 5326, 6-morpholino-N-((E)-m-tolylmethyleneamino)-2-(2-(2-pyridyl)ethoxy)pyrimidin-4-amine], the “induction of NOX-1 gene expression by inflammatory cytokines” value in [2] (1 μM) is “inhibited”. The “interleukin-12 and interleukin-23 production” value in series [7] was “inhibits interleukin-12 and interleukin-23 production”.

As to `COc1cc(C(C)=O)ccc1O` [apocynin], the “selectivity among NOX isotypes (in words)” value on NOX-1 is recorded as “non-selective”.

Consider `c1ccc2c(c1)[I+]c1ccccc1-2` [diphenylene iodonium], for which the “selectivity among NOX isotypes (in words)” value at NOX-1 is listed as “non-selective”.

Take “Methyl-2-phenyl-5-(2-pyridinylmethyl)-1H-pyrazolo[4,3-c]pyridine-3,6(2H,5H)-dione [C1]”: the “inflammatory cytokine-induced cell death, pro-caspase 3 cleavage” value in the series with beta cells [8] is listed as “significantly protected”. In the series on beta cells [9], the “inflammatory cytokine-induced cell death, YO-PRO-1 microscopic apoptotic index” value was “significantly protected”. In addition, the “glucose-stimulated-insulin-secretion response with PIC” value in the series on beta cells [1] was “preserved”. In series [2], the “inflammatory cytokine-induced gene expression (NOX-1 and MCP-1)” value is “dose-related inhibition”.
